For one series, the system named is A549. The experiment in a line: Antiproliferative activity against human A549 cells assessed as inhibition of cell proliferation by MTT assay. Format: functional, cell-based.
Series [1] concerns HepG2. Kind of series: Antiproliferative activity against human HepG2 cells assessed as inhibition of cell proliferation by MTT assay. Format: functional, cell-based. For orientation: Tetrazolium assays rely on reduction of a dye to a coloured formazan, in cell work by metabolically active cells.
The subject of another series is PC-3. Kind of series: Antiproliferative activity against human PC-3 cells assessed as inhibition of cell proliferation by MTT assay. Format: functional, cell-based.
Series [2] is described as follows: Cytotoxicity against mouse L929 cells assessed as inhibition of cell proliferation by MTT assay. Format: toxicity, cell-based.
The subject of series [3] is HepG2. The experiment in a line: Potency index, ratio of PD IC50 to test compound IC50 for antiproliferative activity against human HepG2 cells assessed as inhibition of cell proliferation by MTT assay. Format: functional.
Series [4] concerns HepG2. Kind of series: Effect on cell morphology in human HepG2 cells at 5 uM by DAPI staining based analysis. Format: functional.

Activity calls are given as the source filed them. The calls are words filed in the database; no cut-off is given here.

As usually defined, the IC50 is the concentration at which inhibition is half-maximal. As for `CC1(C)CCC[C@](C)([C@@H]2CC[C@]3(C)[C@@H]2[C@H](O)C[C@H]2[C@@]4(C)CC[C@H](OC(=O)CSc5nc6c(Cl)cccc6c(=O)[nH]5)C(C)(C)[C@@H]4CC[C@]23C)O1`, the IC50 was more than 100 µM with A549, more than 100 µM in the series with HepG2 [1], 62.3 µM in the series on PC-3 and more than 100 µM in series [2].

`CC1(C)CCC[C@](C)([C@@H]2CC[C@]3(C)[C@@H]2[C@H](O)C[C@@H]2[C@@]4(C)CC[C@H](OC(=O)CSc5nc(-c6ccccc6)c(C#N)c(=O)[nH]5)C(C)(C)[C@@H]4CC[C@]23C)O1`: the half-maximal inhibitory concentration (IC50) worked out at 8.9 µM with A549, 7.6 µM in the series on HepG2 [1], 9.82 µM with PC-3 and 74.7 µM in series [2].

`COc1cccc(-c2nc(SCC(=O)O[C@H]3CC[C@]4(C)[C@H]5C[C@@H](O)[C@@H]6[C@H]([C@@]7(C)CCCC(C)(C)O7)CC[C@@]6(C)[C@]5(C)CC[C@H]4C3(C)C)[nH]c(=O)c2C#N)c1`: the IC50 in the series on A549 amounted to 6.84 µM; in the series with HepG2 [1], 6.85 µM; with PC-3, 8.98 µM; in series [2], 64.5 µM.

Regarding `Cc1cccc(-c2nc(SCC(=O)O[C@H]3CC[C@@]4(C)[C@@H](CC[C@]5(C)[C@H]4C[C@@H](O)[C@@H]4[C@H]([C@@]6(C)CCCC(C)(C)O6)CC[C@]45C)C3(C)C)[nH]c(=O)c2C#N)c1`, the IC50 amounted to 13.6 µM in the series on A549, 14.1 µM with HepG2 [1], 17 µM in the series with PC-3 and 77.1 µM in series [2].

On to `CC1(C)CCC[C@](C)([C@@H]2CC[C@]3(C)[C@@H]2[C@H](O)C[C@H]2[C@@]4(C)CC[C@H](OC(=O)CSc5nc(-c6cccc(O)c6)c(C#N)c(=O)[nH]5)C(C)(C)[C@@H]4CC[C@]23C)O1`, for which the IC50 was found to be 14.3 µM in the series on A549, 9.35 µM in the series on HepG2 [1], 20.8 µM in the series on PC-3 and 78.5 µM in series [2].

Consider `CC1(C)CCC[C@](C)([C@@H]2CC[C@]3(C)[C@@H]2[C@H](O)CC2[C@@]4(C)CC[C@H](OC(=O)CSc5nc(-c6ccc(Br)cc6)c(C#N)c(=O)[nH]5)C(C)(C)[C@@H]4CC[C@]23C)O1` (stereo not given in full), for which the IC50 is 7.51 µM in the series with A549, 5.91 µM in the series on HepG2 [1], 9.72 µM in the series with PC-3 and 77 µM in series [2].

In the case of `CC1(C)CCC[C@](C)([C@@H]2CC[C@]3(C)[C@@H]2[C@H](O)C[C@H]2[C@@]4(C)CC[C@H](OC(=O)CSc5nc(-c6ccncc6)c(C#N)c(=O)[nH]5)C(C)(C)[C@@H]4CC[C@]23C)O1`, the concentration for half-maximal inhibition (IC50) worked out at 17.3 µM in the series on A549, 12.8 µM in the series on HepG2 [1], 15.8 µM in the series with PC-3 and 77.1 µM in series [2].

Regarding `COc1ccc(-c2nc(SCC(=O)O[C@H]3CC[C@@]4(C)[C@@H](CC[C@]5(C)[C@H]4C[C@@H](O)[C@@H]4C([C@@]6(C)CCCC(C)(C)O6)CC[C@]45C)C3(C)C)[nH]c(=O)c2C#N)cc1` (stereo not given in full), the IC50 in the series with A549 turned out to be 6.88 µM; in the series on HepG2 [1] it was 5.09 µM; in the series on PC-3, 9.45 µM; in series [2] it was 76.3 µM.

Take `CC1(C)CCC[C@](C)([C@@H]2CC[C@]3(C)[C@@H]2[C@H](O)C[C@H]2[C@@]4(C)CC[C@H](OC(=O)CSc5nc6ccc([N+](=O)[O-])cc6c(=O)[nH]5)C(C)(C)[C@@H]4CC[C@]23C)O1`: the IC50 was more than 100 µM with A549, 59.8 µM in the series with HepG2 [1], more than 100 µM in the series on PC-3 and more than 100 µM in series [2].

As for `CC1(C)CCC[C@](C)([C@@H]2CC[C@]3(C)[C@@H]2[C@H](O)C[C@H]2[C@@]4(C)CC[C@H](OC(=O)CSc5nc6cc(Cl)ccc6c(=O)[nH]5)C(C)(C)[C@@H]4CC[C@]23C)O1`, the half-maximal inhibitory concentration (IC50) (in the series with A549; in the series with HepG2 [1]; in the series on PC-3; in series [2]) was more than 100 µM in each case.

Take `Cc1ccc2nc(SCC(=O)O[C@H]3CC[C@@]4(C)[C@@H](CC[C@]5(C)[C@H]4C[C@@H](O)[C@@H]4[C@H]([C@@]6(C)CCCC(C)(C)O6)CC[C@]45C)C3(C)C)[nH]c(=O)c2c1`: the IC50 (in the series with A549; with HepG2 [1]; in the series on PC-3; in series [2]) was more than 100 µM each time.

For `CC1(C)CCC[C@](C)([C@@H]2CC[C@]3(C)[C@@H]2[C@H](O)C[C@H]2[C@@]4(C)CC[C@H](OC(=O)CSc5nc6cccc(Cl)c6c(=O)[nH]5)C(C)(C)[C@@H]4CC[C@]23C)O1`, the concentration for half-maximal inhibition (IC50) in the series with A549 is 83 µM; in the series with HepG2 [1], 67.8 µM; in the series on PC-3 it was more than 100 µM; in series [2] it was more than 100 µM.

As to `CC1(C)CCC[C@](C)([C@@H]2CC[C@]3(C)[C@@H]2[C@H](O)C[C@H]2[C@@]4(C)CC[C@H](OC(=O)CSc5nc6ccc(F)cc6c(=O)[nH]5)C(C)(C)[C@@H]4CC[C@]23C)O1`, the IC50 is 56.6 µM in the series with A549, 70.5 µM in the series on HepG2 [1], more than 100 µM in the series with PC-3 and more than 100 µM in series [2].

For `CC1(C)CCC[C@](C)([C@@H]2CC[C@]3(C)[C@@H]2[C@H](O)CC2[C@@]4(C)CC[C@H](OC(=O)CSc5nc(-c6cccc(Br)c6)c(C#N)c(=O)[nH]5)C(C)(C)[C@@H]4CC[C@]23C)O1` (stereo not given in full), the IC50 in the series with A549 was 6.69 µM; in the series on HepG2 [1], 5.95 µM; in the series on PC-3 it was 6.53 µM; in series [2], 70.3 µM.

`CC1(C)CCC[C@](C)([C@@H]2CC[C@]3(C)[C@@H]2[C@H](O)CC2[C@@]4(C)CC[C@H](OC(=O)CSc5nc(-c6cccc(F)c6)c(C#N)c(=O)[nH]5)C(C)(C)[C@@H]4CC[C@]23C)O1` (stereo not given in full): the IC50 was found to be 6.98 µM in the series on A549, 7.56 µM in the series on HepG2 [1], 8.19 µM in the series on PC-3 and 76 µM in series [2].

As for `CC1(C)CCC[C@](C)([C@@H]2CC[C@]3(C)[C@@H]2[C@H](O)CC2[C@@]4(C)CC[C@H](OC(=O)CSc5nc(-c6cccc(Cl)c6)c(C#N)c(=O)[nH]5)C(C)(C)[C@@H]4CC[C@]23C)O1` (stereo not given in full), the IC50 came to 7.14 µM with A549, 7.09 µM in the series on HepG2 [1], 8.44 µM in the series on PC-3 and 74.9 µM in series [2].

`CC1(C)CCC[C@](C)([C@@H]2CC[C@]3(C)[C@@H]2[C@H](O)C[C@H]2[C@@]4(C)CC[C@H](OC(=O)CSc5nc6ccc(Br)cc6c(=O)[nH]5)C(C)(C)[C@@H]4CC[C@]23C)O1`: the half-maximal inhibitory concentration (IC50) (in the series with A549; with HepG2 [1]; in the series with PC-3; in series [2]) was more than 100 µM in each case.

On to `Cc1ccc(-c2nc(SCC(=O)O[C@H]3CC[C@@]4(C)[C@@H](CC[C@]5(C)[C@H]4C[C@@H](O)[C@@H]4[C@H]([C@@]6(C)CCCC(C)(C)O6)CC[C@]45C)C3(C)C)[nH]c(=O)c2C#N)cc1`, for which the IC50 in the series on A549 was 6.77 µM; with HepG2 [1], 4.51 µM; in the series on PC-3, 7.73 µM; in series [2] it was 77.4 µM. Besides, the “Ratio IC50” value in the series on HepG2 [3] is listed as 12.

In the case of `CC1(C)CCC[C@](C)([C@@H]2CC[C@]3(C)[C@@H]2[C@H](O)CC2[C@@]4(C)CC[C@H](OC(=O)CSc5nc(-c6ccc(C(F)(F)F)cc6)c(C#N)c(=O)[nH]5)C(C)(C)[C@@H]4CC[C@]23C)O1` (stereo not given in full), the concentration for half-maximal inhibition (IC50) stood at 7.03 µM in the series on A549, 3.16 µM in the series on HepG2 [1], 8.74 µM in the series on PC-3 and 68.7 µM in series [2]. Also, in the series with HepG2 [3], the “Ratio IC50” value is 21.

In the case of `O=c1[nH]cc(F)c(=O)[nH]1` [FLUOROURACIL], the half-maximal inhibitory concentration (IC50) with A549 was 29.2 µM; in series [2] it was more than 100 µM. In addition, in the series on HepG2 [4], the outcome was inactive.

As for `CC1(C)CCC[C@](C)(C2CC[C@]3(C)[C@@H]2[C@H](O)C[C@H]2[C@@]4(C)CC[C@H](OC(=O)CSc5nc(-c6c[nH]c7ccccc67)c(C#N)c(=O)[nH]5)C(C)(C)[C@@H]4CC[C@]23C)O1` (stereo not given in full), the IC50 in the series with A549 was determined as 7.17 µM; in the series on HepG2 [1] it was 5.21 µM; in the series on PC-3, 10.8 µM; in series [2], 76.1 µM.

Regarding `COc1cc(-c2nc(SCC(=O)O[C@H]3CC[C@@]4(C)[C@@H](CC[C@]5(C)[C@H]4C[C@@H](O)[C@@H]4C([C@@]6(C)CCCC(C)(C)O6)CC[C@]45C)C3(C)C)[nH]c(=O)c2C#N)cc(OC)c1OC` (stereo not given in full), the 50% inhibitory concentration (IC50) is 7.6 µM in the series on A549, 7.71 µM in the series on HepG2 [1], 13.3 µM in the series with PC-3 and 77.7 µM in series [2].

With `CC1(C)CCC[C@](C)([C@@H]2CC[C@]3(C)[C@@H]2[C@H](O)CC2[C@@]4(C)CC[C@H](OC(=O)CSc5nc(-c6ccc(F)cc6)c(C#N)c(=O)[nH]5)C(C)(C)[C@@H]4CC[C@]23C)O1` (stereo not given in full), the IC50 with A549 worked out at 9.09 µM; with HepG2 [1] it was 7.75 µM; in the series on PC-3 it was 7.82 µM; in series [2], 76 µM.

Consider `CC1(C)CCC[C@](C)([C@@H]2CC[C@]3(C)[C@@H]2[C@H](O)C[C@H]2[C@@]4(C)CC[C@H](O)C(C)(C)[C@@H]4CC[C@]23C)O1`, for which the IC50 with A549 is 58.4 µM; with HepG2 [1], 59.2 µM; in the series with PC-3, 68.3 µM; in series [2], more than 100 µM.

As to `CC1(C)CCC[C@](C)([C@@H]2CC[C@]3(C)[C@@H]2[C@H](O)C[C@H]2[C@@]4(C)CC[C@H](OC(=O)CSc5nc6ccc(Cl)cc6c(=O)[nH]5)C(C)(C)[C@@H]4CC[C@]23C)O1`, the IC50 with A549 is more than 100 µM; with HepG2 [1], 80.5 µM; in the series with PC-3, more than 100 µM; in series [2], more than 100 µM.

For the compound `CC1(C)CCC[C@](C)([C@@H]2CC[C@]3(C)[C@@H]2[C@H](O)CC2[C@@]4(C)CC[C@H](OC(=O)CSc5nc(-c6ccc(Cl)cc6)c(C#N)c(=O)[nH]5)C(C)(C)[C@@H]4CC[C@]23C)O1` (stereo not given in full), the IC50 was determined as 6.79 µM with A549, 6.39 µM in the series with HepG2 [1], 7.42 µM with PC-3 and 76.8 µM in series [2].

Values taken from ChEMBL document CHEMBL5236586, “Novel ginsenoside derivatives induce apoptosis in HepG-2 cells via the MDM2-p53 signaling pathway” (Bioorg Med Chem Lett, 2022).
